Experimental data reported in patent US20030224942A1, “Alkylamino-1,3,5-triazines, processes for their preparation and their use as herbicides and plant growth regulators” (priority 2001, published 2003).

Assays:
[1] = tested on: Cyperus spp., Echinochloa spp., Digitaria spp., Sagitaria spp. and Scirpus spp.; assay: Action on harmful plants in rice (paddy rice conditions, visual scoring); format: in vivo, typical rice weeds (gramineous and broad-leaved); details: applied into the dammed water, visual scoring about three weeks after application
Text: Transplanted and sown rice and also typical rice weeds (gramineous and broad-leaved) are cultivated in closed plastic pots in a greenhouse to the three-leaf stage (Echinochloa crus-galli 1.5-leaf) under paddy rice conditions (dammed height of water: 2-3 cm). This is followed by treatment with the compounds according to the invention. […] After this treatment, the test plants are set up in a greenhouse under optimum growth conditions and are maintained in this way throughout the test period.

[2] = tested on: Chenopodium spp., Papaver spp., Polygonum spp., Veronica spp. or Viola spp.; assay: Post-emergence effect on weeds (greenhouse pot test, visual scoring); format: in vivo, monocotyledonous and dicotyledonous weeds; details: treated at three-leaf stage; visual scoring after about 3 to 4 weeks; application rate of 0.5 kg and less of active substance per hectare

SMILES | herbicidal activity against harmful plants which are typical for rice crops [1] | herbicidal activity post-emergence against harmful plants [2]
C#Cc1ccc(C(Nc2nc(N)nc(C(C)(C)F)n2)C2CC2)cc1 (stereo not shown) [Product P19.1580] | very good herbicidal activity | very good herbicidal activity
C#Cc1cc(C(C)Nc2nc(N)nc(C(C)(C)F)n2)ccc1F (stereo not shown) [Product P17.309] | very good herbicidal activity | very good herbicidal activity
CC(C)c1nc(N)nc(NC(C)c2cccc(C3CC3)c2)n1 (stereo not shown) [Product P12.1603] | very good herbicidal activity | very good herbicidal activity
CC(F)C#Cc1cc(C(C)Nc2nc(N)nc(C(C)(C)F)n2)ccc1F (stereo not shown) [Product P17.764] | very good herbicidal activity | very good herbicidal activity
CC(C)c1nc(N)nc(NC(C)c2ccc(C3CC3)cc2)n1 (stereo not shown) [Product P12.1604] | very good herbicidal activity | very good herbicidal activity
CC(C)c1nc(N)nc(NC(C)c2cc(F)c(C3CC3)c(F)c2)n1 (stereo not shown) [Product P12.960] | very good herbicidal activity | very good herbicidal activity
CCC(F)c1nc(N)nc(NCc2cccc(C3CC3)c2)n1 (stereo not shown) [Product P26.1603] | very good herbicidal activity | very good herbicidal activity
CCc1nc(N)nc(NCc2ccc(C3CC3)cc2)n1 [Product P6.1604] | very good herbicidal activity | very good herbicidal activity
CC(Nc1nc(N)nc(C(C)(C)F)n1)c1cc(F)c(C(F)=C(F)F)c(F)c1 (stereo not shown) [Product P17.49] | very good herbicidal activity | very good herbicidal activity
CC#Cc1cccc(C(Nc2nc(N)nc(C(C)C)n2)C2CC2)c1 (stereo not shown) [Product P14.1582] | very good herbicidal activity | very good herbicidal activity
C=C=Cc1c(F)cc(C(C)Nc2nc(N)nc(C(C)F)n2)cc1F (stereo not shown) [Product P22.656] | very good herbicidal activity | very good herbicidal activity
Cc1nc(N)nc(NCc2cc(F)c(C3CC3)c(F)c2)n1 [Product P1.960] | very good herbicidal activity | very good herbicidal activity
CCC(F)c1nc(N)nc(NC(C)c2ccc(F)c(C#CC(C)O)c2)n1 (stereo not shown) [Product P27.840] | very good herbicidal activity | very good herbicidal activity
C#Cc1ccc(C(C)Nc2nc(N)nc(C(C)(C)F)n2)cc1 (stereo not shown) [Product P17.1580] | very good herbicidal activity | very good herbicidal activity
CC(C)c1nc(N)nc(NC(C)c2ccc(F)c(C3CC3)c2)n1 (stereo not shown) [Product P12.916] | very good herbicidal activity | very good herbicidal activity
Cc1nc(N)nc(NC(c2ccc(C(F)=C(F)F)cc2)C2CC2)n1 (stereo not shown) [Product P4.1568] | very good herbicidal activity | very good herbicidal activity
Cc1nc(N)nc(NCc2cc(F)c(C(F)=C(F)F)c(F)c2)n1 [Product P1.49] | very good herbicidal activity | very good herbicidal activity
Cc1nc(N)nc(NCc2ccc(F)c(C3CC3)c2)n1 [Product P1.916] | very good herbicidal activity | very good herbicidal activity
CCC(F)c1nc(N)nc(NCc2ccc(C(F)=C(F)F)cc2)n1 (stereo not shown) [Product P26.1568] | very good herbicidal activity | very good herbicidal activity
CC#Cc1ccc(CNc2nc(C)nc(N)n2)cc1 [Product P1.1583] | very good herbicidal activity | very good herbicidal activity
C#Cc1cccc(C(C)Nc2nc(N)nc(C(C)F)n2)c1 (stereo not shown) [Product P22.1579] | very good herbicidal activity | very good herbicidal activity

SMILES | herbicidal activity against harmful plants which are typical for rice crops [1] | herbicidal activity post-emergence against harmful plants [2]
CC#Cc1cccc(C(C)Nc2nc(N)nc(CC)n2)c1 (stereo not shown) [Product P7.1582] | very good herbicidal activity | very good herbicidal activity
C#Cc1ccc(CNc2nc(N)nc(C(C)(C)F)n2)cc1 [Product P16.1580] | very good herbicidal activity | very good herbicidal activity
C#Cc1c(F)cc(C(Nc2nc(N)nc(C(C)(C)F)n2)C2CC2)cc1F (stereo not shown) [Product P19.352] | very good herbicidal activity | very good herbicidal activity
CC#Cc1cccc(CNc2nc(C)nc(N)n2)c1 [Product P1.1582] | very good herbicidal activity | very good herbicidal activity
C#Cc1ccc(C(Nc2nc(N)nc(C(F)CC)n2)C2CC2)cc1 (stereo not shown) [Product P29.1580] | very good herbicidal activity | very good herbicidal activity
C#Cc1ccc(C(C)Nc2nc(N)nc(CC)n2)cc1F (stereo not shown) [Product P7.1620] | very good herbicidal activity | very good herbicidal activity
CC#Cc1c(F)cc(C(Nc2nc(N)nc(CC)n2)C2CC2)cc1F (stereo not shown) [Product P9.428] | very good herbicidal activity | very good herbicidal activity
C#Cc1c(F)cc(CNc2nc(C)nc(N)n2)cc1F [Product P1.352] | very good herbicidal activity | very good herbicidal activity
CC#Cc1cccc(CNc2nc(N)nc(C(C)(C)F)n2)c1 [Product P16.1582] | very good herbicidal activity | very good herbicidal activity
CC#Cc1c(F)cc(CNc2nc(N)nc(C(C)F)n2)cc1F (stereo not shown) [Product P21.428] | very good herbicidal activity | very good herbicidal activity
C#Cc1cc(C#C)cc(C(C)Nc2nc(N)nc(C(C)F)n2)c1 (stereo not shown) [Product P22.369] | very good herbicidal activity | very good herbicidal activity
Cc1nc(N)nc(NCc2cccc(C(F)=C(F)F)c2)n1 [Product P1.1567] | very good herbicidal activity | very good herbicidal activity
C#Cc1cccc(C(Nc2nc(N)nc(CC)n2)C2CC2)c1 (stereo not shown) [Product P9.1579] | very good herbicidal activity | very good herbicidal activity
CCc1nc(N)nc(NC(C)c2cc(F)c(C3CC3)c(F)c2)n1 (stereo not shown) [Product P7.960] | very good herbicidal activity | very good herbicidal activity
CC#Cc1cc(C(C)Nc2nc(N)nc(C(C)F)n2)ccc1F (stereo not shown) [Product P22.384] | very good herbicidal activity | very good herbicidal activity
CCC(F)c1nc(N)nc(NC(C)c2cccc(C#CC(C)O)c2)n1 (stereo not shown) [Product P27.1600] | very good herbicidal activity | very good herbicidal activity
CC(Nc1nc(N)nc(C(C)(C)F)n1)c1ccc(F)c(C(F)=C(F)F)c1 (stereo not shown) [Product P17.5] | very good herbicidal activity | very good herbicidal activity
CCc1nc(N)nc(NC(c2ccc(C3CC3)cc2)C2CC2)n1 (stereo not shown) [Product P9.1604] | very good herbicidal activity | very good herbicidal activity
CC#Cc1ccc(C(Nc2nc(N)nc(C(C)F)n2)C2CC2)cc1 (stereo not shown) [Product P24.1583] | very good herbicidal activity | very good herbicidal activity
CCc1nc(N)nc(NCc2ccc(F)c(C3CC3)c2)n1 [Product P6.916] | very good herbicidal activity | very good herbicidal activity
